Earlier results as cited in patent EP1077694B1, “ARYL NITRONE THERAPEUTICS FOR THE TREATMENT OF INFLAMMATORY BOWEL DISEASE” (Renovis, Inc., priority 1998, dated 1999).

Test system: senescence-accelerated mice

SMILES: CC(C)(C)[N+]([O-])=Cc1ccccc1 [PBN, α-phenyl-t-butyl nitrone]
- increase the life span: one third
